Results: patent US5710151A, “Method of treating urinary bladder dysfunctions” (priority 1996, dated 1998)
Where a name gives a salt, the structure may show the parent alone.

Target: muscarinic receptors
Assay: inhibition of binding of 3H-oxotremorine-M to muscarinic receptors
Conditions: 3 nM 3H-oxotremorine-M, rat cerebral cortical membranes, pH 7.4, 15 min, 25° C.; read-out: Inhibition of ^3 H-Oxo
Protocol: The affinity of the compounds for the muscarinic receptors was determined using the non-selective agonist ligand, ^3 H-oxotremorine-M. Birdsdall N. J. M., Hulme E. C., and Burgen A. S. V. "The Character of Muscarinic Receptors in Different Regions of the Rat Brain", 207 Proc. Roy. Soc. 1 (London, Series B, 1980). Each compound was tested to determine the affinity of the compound for the muscarinic receptors using the following procedure.
For in vitro binding, male Sprague-Dawley (Harlan Sprague-Dawley, Indianapolis, Ind.) rats weighing from about 100 to about 150 grams each were sacrificed by decapitation. The brains were quickly removed and the cerebral cortex were dissected from the brain. The cerebral cortex tissue was homogenized in 10 volumes of 0.32M sucrose and […] at about 1000×g. The supernatant was centrifuged at about 12,000×g for about 10 minutes and the resulting pellet was resuspended in 20 mM tris-Cl, pH 7.4. The resuspended pellet was centrifuged again for about 10 minutes at about 50,000×g. The resulting homogenate was preincubated for about 10 minutes at about 25° C. and centrifuged again for about 10 minutes at about 50,000×g. The pellet was resuspended at 1 gram of pellet per 3 ml of buffer and frozen at about -80° C. until used.
The inhibition of binding of ^3 H-oxotremorine-M to muscarinic receptors was determined by mixing the compound of the Example, 3 nM ^3 H-oxotremorine-M (about 87 Ci/mmoles, New England Nuclear, Boston Mass.), and cerebral cortical membranes equivalent to about 10 mg wet weight, which is about 100 μg of cortical membrane protein, in about 1 ml total volume of […] tris-Cl buffer, pH 7.4, containing 1 mM MnCl2. The aforementioned homogenates mixture was incubated for about 15 minutes at about 25° C. and then the homogenates were filtered through glass filters (Whatman, GF/C) with vacuum. The filters were washed 3 times with about 2 ml of cold tris-Cl buffer, and placed in scintillation vials containing about 10 ml of scintillation fluid (Ready Protein+, Beckman, Fullerton, Calif.). Radioactivity trapped on the filters was determined by liquid scintillation spectrometry. Nonspecific binding was determined using 1 μM atropine. The concentration of compound required to inhibit specific binding 50% (IC50) was determined using standardized computer assisted calculations (DeLean, A. et al. Am. J. Physiol., 235, (1978)).

| SMILES | IC50 |
| --- | --- |
| CCOc1nsnc1[C@@H]1CN2CCC[C@@H]1C2 (relative stereo) [Compound 19, Exo-6-(3-ethoxy-1,2,5-thiadiazol-4-yl)-1-azabicyclo[3.2.1]octane oxalate] | 1.2 nM |
| CCCCCCSc1nsnc1[C@@H]1CN2CCC[C@@H]1C2 (relative stereo) [Compound 29, Exo-6-(3-hexylthio-1,2,5-thiadiazol-4-yl)-1-azabicyclo[3.2.1]octane oxalate] | 1.2 nM |
| CCCCSc1nsnc1[C@@H]1CN2CCC[C@@H]1C2 (relative stereo) [Compound 30, Exo-6-(3-butylthio-1,2,5-thiadiazol-4-yl)-1-azabicyclo[3.2.1]octane oxalate] | 0.4 nM |
| CCCCCSc1nsnc1[C@@H]1CN2CCC[C@@H]1C2 (relative stereo) [Compound 31, Exo-6-(3-pentylthio-1,2,5-thiadiazol-4-yl)-1-azabicyclo[3.2.1]octane oxalate] | 1.8 nM |
| CCSc1nsnc1[C@@H]1CN2CCC[C@@H]1C2 (relative stereo) [Compound 32, Exo-6-(3-ethylthio-1,2,5-thiadiazol-4-yl)-1-azabicyclo[3.2.1]octane oxalate] | 1.3 nM |
| CCCSc1nsnc1[C@@H]1CN2CCC[C@@H]1C2 (relative stereo) [Compound 58, Exo-6-(3-propylthio-1,2,5-thiadiazol-4-yl)-1-azabicyclo[3.2.1]octane oxalate] | 0.8 nM |
| CCCCCOc1nsnc1[C@@H]1CN2CCC[C@@H]1C2 (relative stereo) [Compound 59, Exo-6-(3-pentyloxy-1,2,5-thiadiazol-4-yl)-1-azabicyclo[3.2.1]octane oxalate] | 1 nM |
| CSc1nsnc1[C@@H]1CN2CCC[C@@H]1C2 (relative stereo) [Compound 74, Exo-6-(3-methylthio-1,2,5-thiadiazol-4-yl)-1-azabicyclo[3.2.1]octane oxalate] | 1.4 nM |
| CC(C)CCCSc1nsnc1[C@@H]1CN2CCC[C@@H]1C2 (relative stereo) [Compound 76, Exo-6-(3-isohexylthio-1,2,5-thiadiazol-4-yl)-1-azabicyclo[3.2.1]octane oxalate] | 7.7 nM |
| CC(C)CCSc1nsnc1[C@@H]1CN2CCC[C@@H]1C2 (relative stereo) [Compound 77, Exo-6-(3-isopentylthio-1,2,5-thiadiazol-4-yl)-1-azabicyclo[3.2.1]octane] | 2.7 nM |
| N#Cc1ccc(CSc2nsnc2[C@@H]2CN3CCC[C@@H]2C3)cc1 (relative stereo) [Compound 82, Exo-6-(3-(4-cyanobenzylthio)-1,2,5-thiadiazol-4-yl)-1-azabicyclo[3.2.1]octane oxalate] | 1.3 nM |
| CCCOc1nsnc1[C@@H]1CN2CCC[C@@H]1C2 (relative stereo) [Compound 119, Exo-6-(3-propoxy-1,2,5-thiadiazol-4-yl)-1-azabicyclo[3.2.1]octane oxalate] | 0.9 nM |
| CCCCOc1nsnc1[C@@H]1CN2CCC[C@@H]1C2 (relative stereo) [Compound 120, Exo-6-(3-butoxy-1,2,5-thiadiazol-4-yl)-1-azabicyclo[3.2.1]octane oxalate] | 0.9 nM |
| CCCCCCOc1nsnc1[C@@H]1CN2CCC[C@@H]1C2 (relative stereo) [Compound 122, Exo-6-(3-hexyloxy-1,2,5-thiadiazol-4-yl)-1-azabicyclo[3.2.1]octane oxalate] | 2.1 nM |
| c1ccc(OCCSc2nsnc2[C@@H]2CN3CCC[C@@H]2C3)cc1 (relative stereo) [Compound 133, Exo-6-(3-(2-phenoxyethylthio)-1,2,5-thiadiazol-4-yl)-1-azabicyclo[3.2.1]octane oxalate] | 1.3 nM |
| CCCCSc1nsnc1C1CN2CCC1CC2 (single isomer, unassigned) [Compound 56, (+) 3-(3-Butylthio-1,2,5-thiadiazol-4-yl)-1-azabicyclo[2.2.2]octane (-)D-tartrate] | 0.4 nM |
| CCOc1nsnc1C1CN2CCC1CC2 (centres unmarked) [Compound 9, 3-(3-Ethoxy-1,2,5-thiadiazol-4-yl)-1-azabicyclo[2.2.2]octane fumarate] | 2.1 nM |
| CCCCSc1nsnc1C1CN2CCC1CC2 (centres unmarked) [Compound 13, 3-(3-Butylthio-1,2,5-thiadiazol-4-yl)-1-azabicyclo[2.2.2]octane fumarate] | 1.9 nM |

| SMILES | IC50 |
| --- | --- |
| CCCCOc1nsnc1C1CN2CCC1CC2 (centres unmarked) [Compound 46, 3-(3-Butoxy-1,2,5-thiadiazol-4-yl)-1-azabicyclo[2.2.2]octane oxalate] | 1.6 nM |
| CCSc1nsnc1C1CN2CCC1CC2 (centres unmarked) [Compound 52, 3-(3-Ethylthio-1,2,5-thiadiazol-4-yl)-1-azabicyclo[2.2.2]octane oxalate] | 1.8 nM |
| CCCSc1nsnc1C1CN2CCC1CC2 (centres unmarked) [Compound 53, 3-(3-Propylthio-1,2,5-thiadiazol-4-yl)-1-azabicyclo[2.2.2]octane oxalate] | 0.9 nM |
| c1ccc(OCCSc2nsnc2C2CN3CCC2CC3)cc1 (centres unmarked) [Compound 102, 3-(3-(2-Phenoxyethylthio)-1,2,5-thiadiazol-4-yl)-1-azabicyclo[2.2.2]octane fumarate] | 4.5 nM |
| N#CCSc1nsnc1C1CN2CCC1CC2 (centres unmarked) [Compound 103, 3-(3-Cyanomethylthio-1,2,5-thiadiazol-4-yl)-1-azabicyclo[2.2.2]octane oxalate] | 2.7 nM |
| c1csc(CCCSc2nsnc2C2CN3CCC2CC3)c1 (centres unmarked) [Compound 104, 3-(3-(3-(2-Thienyl)propylthio)-1,2,5-thiadiazol-4-yl)-1-azabicyclo[2.2.2]octane fumarate] | 2.6 nM |
| Cn1nnnc1SCCCCSc1nsnc1C1CN2CCC1CC2 (centres unmarked) [Compound 106, 3-(3-(1-Methyltetrazol-5-ylthio)butylthio-1,2,5-thiadiazol-4-yl)-1-azabicylo[2.2.2]octane oxalate] | 2.8 nM |
| Cc1nnc(SCCCCSc2nsnc2C2CN3CCC2CC3)s1 (centres unmarked) [Compound 107, oxalate] | 1 nM |
| CCCCSc1nsnc1[C@@H]1CN2CCC[C@@H]1C2 [Compound 111, (5S,6S)-6-(3-butylthio-1,2,5-thiadiazol-4-yl)-1-azabicyclo[3.2.1]octane (+) L-tartrate] | 1 nM |
| CCCCSc1nsnc1[C@H]1CN2CCC[C@H]1C2 [Compound 112, (5R,6R)-6-(3-butylthio-1,2,5-thiadiazol-4-yl)-1-azabicyclo[3.2.1]octane (-) D-tartrate] | 0.6 nM |
| CCCSc1nsnc1[C@H]1CN2CCC[C@H]1C2 [Compound 113, (5R,6R)-6-(3-propylthio-1,2,5-thiadiazol-4-yl)-1-azabicyclo[3.2.1]octane (+) L-tartrate] | 0.89 nM |
| CCCSc1nsnc1[C@@H]1CN2CCC[C@@H]1C2 [Compound 114, (5S,6S)-6-(3-propylthio-1,2,5-thiadiazol-4-yl)-1-azabicyclo[3.2.1]octane (-) D-tartrate] | 0.45 nM |
| FC(F)(F)CCCSc1nsnc1[C@@H]1CN2CCC[C@@H]1C2 [Compound 130, (5S,6S)-6-(3-(4,4,4-trifluoro-1-butylthio)-1,2,5-thiadiazol-4-yl)-1-azabicyclo[3.2.1]octane oxalate] | 1.8 nM |
| CSc1nsnc1C1CN2CCC1CC2 (centres unmarked) [Compound 131, 3-(3-Methylthio-1,2,5-thiadiazol-4-yl)-1-azabicyclo[2.2.2]octane oxalate] | 2.8 nM |
| CC(C)CCCSc1nsnc1[C@H]1CN2CCC[C@H]1C2 [Compound 157, (5R,6R)-6-(3-isohexylthio-1,2,5-thiadiazol-4-yl)-1-azabicyclo[3.2.1]octane (+) L-tartrate] | 10 nM |
| CC(C)CCCSc1nsnc1[C@@H]1CN2CCC[C@@H]1C2 [Compound 158, (5S,6S)-6-(3-isohexylthio-1,2,5-thiadiazol-4-yl)-1-azabicyclo[3.2.1]octane oxalate] | 10 nM |
| FC(F)(F)CCCSc1nsnc1[C@H]1CN2CCC[C@H]1C2 [Compound 167, (5R,6R)-6-(3-(4,4,4-trifluorobutylthio)-1,2,5-thiadiazol-4-yl)-1-azabicyclo[3.2.1]octane oxalate] | 0.76 nM |
